Source: paper PMC5218480 (PLoS ONE, 2017)

System: MV-4-11 cells
Experiment: Gene expression microarray analysis (Affymetrix PrimeView) and GSEA
Assay type: cell-based, human
Parameters: RFU PODN (11730768_x_at) / Fold change /veh PODN (11730768_x_at) / RFU LINC00158 (11744669_a_at) / Fold change /veh LINC00158 (11744669_a_at) / RFU DUSP10 (11751237_a_at) / Fold change /veh DUSP10 (11751237_a_at) / RFU ID3 (11757404_x_at) / Fold change /veh ID3 (11757404_x_at) / RFU PLEKHG5 (11737974_s_at) / Fold change /veh PLEKHG5 (11737974_s_at) / RFU LRRC4B (11730491_at) / Fold change /veh LRRC4B (11730491_at) / RFU GIMAP4 (11747438_a_at) / Fold change /veh GIMAP4 (11747438_a_at) / RFU KRT8 (11758183_x_at) / Fold change /veh KRT8 (11758183_x_at) / RFU CNN1 (11734310_a_at) / Fold change /veh CNN1 (11734310_a_at) / RFU VPS37D (11726825_at) / Fold change /veh VPS37D (11726825_at) / RFU C10orf10 (11716522_x_at) / Fold change /veh C10orf10 (11716522_x_at) / RFU KIR2DL2 /// KIR2DL4 /// KIR2DL5A /// KIR2DL5B /// KIR2DS1 /// KIR2DS2 /// KIR2DS3 /// KIR2DS4 /// KIR3DL3 /// KIR3DL3 /// KIR3DS1 (11738374_at) / Fold change /veh KIR2DL2 /// KIR2DL4 /// KIR2DL5A /// KIR2DL5B /// KIR2DS1 /// KIR2DS2 /// KIR2DS3 /// KIR2DS4 /// KIR3DL3 /// KIR3DL3 /// KIR3DS1 (11738374_at) / RFU C1QL1 (11718748_at) / Fold change /veh C1QL1 (11718748_at) / RFU TMPRSS4 (11747572_a_at) / Fold change /veh TMPRSS4 (11747572_a_at) / RFU HAMP (11756126_x_at) / Fold change /veh HAMP (11756126_x_at) / RFU RNFT2 (11725882_a_at) / Fold change /veh RNFT2 (11725882_a_at) / RFU NR4A2 (11747474_a_at) / Fold change /veh NR4A2 (11747474_a_at) / RFU ABCC12 (11746883_a_at) / Fold change /veh ABCC12 (11746883_a_at) / RFU TMEM136 (11760407_x_at) / Fold change /veh TMEM136 (11760407_x_at) / RFU CLDN22 /// WWC2 (11732394_at) / Fold change /veh CLDN22 /// WWC2 (11732394_at) / RFU HLA-DPB1 (11760878_x_at) / Fold change /veh HLA-DPB1 (11760878_x_at) / RFU SPINT1 (11716480_a_at) / Fold change /veh SPINT1 (11716480_a_at) / RFU GAP43 (11754022_s_at) / Fold change /veh GAP43 (11754022_s_at) / RFU A4GNT (11735810_at) / Fold change /veh A4GNT (11735810_at) / RFU PRB3 (11715151_x_at) / Fold change /veh PRB3 (11715151_x_at) / RFU TUBB4B (11761932_at) / Fold change /veh TUBB4B (11761932_at) / RFU CAPN14 (11732068_a_at) / Fold change /veh CAPN14 (11732068_a_at) / RFU TMCC2 (11721928_a_at) / Fold change /veh TMCC2 (11721928_a_at) / RFU IRGQ (11745062_a_at) / Fold change /veh IRGQ (11745062_a_at) / RFU FAM174B (11720279_a_at) / Fold change /veh FAM174B (11720279_a_at) / RFU TMPRSS4 (11748680_a_at) / Fold change /veh TMPRSS4 (11748680_a_at) / RFU FAM212B (11763350_a_at) / Fold change /veh FAM212B (11763350_a_at) / RFU PLEKHG5 (11743358_a_at) / Fold change /veh PLEKHG5 (11743358_a_at) / RFU ZSCAN30 (11745921_a_at) / Fold change /veh ZSCAN30 (11745921_a_at) / RFU CMKLR1 (11741424_a_at) / Fold change /veh CMKLR1 (11741424_a_at) / RFU LOC101060620 /// MAPK8IP1 (11723275_at) / Fold change /veh LOC101060620 /// MAPK8IP1 (11723275_at) / RFU SPTSSB (11747773_x_at) / Fold change /veh SPTSSB (11747773_x_at) / RFU PRSS12 (11739890_at) / Fold change /veh PRSS12 (11739890_at) / RFU BIN1 (11741810_x_at) / Fold change /veh BIN1 (11741810_x_at) / RFU WNT11 (11732464_a_at) / Fold change /veh WNT11 (11732464_a_at) / RFU C10orf10 (11716521_a_at) / Fold change /veh C10orf10 (11716521_a_at) / RFU C5orf56 (11738089_at) / Fold change /veh C5orf56 (11738089_at) / RFU CYB561 (11721691_x_at) / Fold change /veh CYB561 (11721691_x_at) / RFU ANKRD19P (11752326_a_at) / Fold change /veh ANKRD19P (11752326_a_at) / RFU OR2T12 /// OR2T33 /// OR2T8 (11738714_s_at) / Fold change /veh OR2T12 /// OR2T33 /// OR2T8 (11738714_s_at) / RFU VCAN (11748164_a_at) / Fold change /veh VCAN (11748164_a_at) / RFU JSRP1 (11732532_at) / Fold change /veh JSRP1 (11732532_at) / RFU KRTAP10-11 (11738290_x_at) / Fold change /veh KRTAP10-11 (11738290_x_at) / RFU MYO3A (11730013_a_at) / Fold change /veh MYO3A (11730013_a_at) / RFU EBF3 (11725865_a_at) / Fold change /veh EBF3 (11725865_a_at) / RFU CAMK2N1 (11719241_x_at) / Fold change /veh CAMK2N1 (11719241_x_at) / RFU C5orf56 (11738088_a_at) / Fold change /veh C5orf56 (11738088_a_at) / RFU OLFML3 (11715873_a_at) / Fold change /veh OLFML3 (11715873_a_at) / RFU LOC100653217 /// NTM (11731650_a_at) / Fold change /veh LOC100653217 /// NTM (11731650_a_at) / RFU MAPK11 (11762145_a_at) / Fold change /veh MAPK11 (11762145_a_at) / RFU FIZ1 (11724087_x_at) / Fold change /veh FIZ1 (11724087_x_at) / RFU OASL (11726364_x_at) / Fold change /veh OASL (11726364_x_at) / RFU SOX15 (11748057_x_at) / Fold change /veh SOX15 (11748057_x_at) / RFU CD79A (11719716_a_at) / Fold change /veh CD79A (11719716_a_at) / RFU HIST1H1D (11736915_at) / Fold change /veh HIST1H1D (11736915_at) / RFU CASKIN2 (11723855_a_at) / Fold change /veh CASKIN2 (11723855_a_at) / RFU LOC730098 (11760151_x_at) / Fold change /veh LOC730098 (11760151_x_at) / RFU OR4N2 (11742367_at) / Fold change /veh OR4N2 (11742367_at) / RFU PRRT2 (11749266_a_at) / Fold change /veh PRRT2 (11749266_a_at) / RFU SNX32 (11753110_a_at) / Fold change /veh SNX32 (11753110_a_at) / RFU CDHR5 (11726645_a_at) / Fold change /veh CDHR5 (11726645_a_at) / RFU RCAN1 (11760418_a_at) / Fold change /veh RCAN1 (11760418_a_at) / RFU FAM167A (11723789_a_at) / Fold change /veh FAM167A (11723789_a_at) / RFU FAM26E (11764081_at) / Fold change /veh FAM26E (11764081_at) / RFU ISYNA1 (11749810_s_at) / Fold change /veh ISYNA1 (11749810_s_at) / RFU ACY1 (11761880_at) / Fold change /veh ACY1 (11761880_at) / RFU 11764098_at / Fold change /veh 11764098_at / RFU SAMD14 (11745864_x_at) / Fold change /veh SAMD14 (11745864_x_at) / RFU NPB (11741838_a_at) / Fold change /veh NPB (11741838_a_at) / RFU TMPRSS6 (11731388_a_at) / Fold change /veh TMPRSS6 (11731388_a_at) / RFU KRTAP10-2 (11738614_at) / Fold change /veh KRTAP10-2 (11738614_at) / RFU ARHGAP8 /// PRR5-ARHGAP8 (11727945_x_at) / Fold change /veh ARHGAP8 /// PRR5-ARHGAP8 (11727945_x_at) / RFU KRTAP5-7 /// NADSYN1 (11734609_at) / Fold change /veh KRTAP5-7 /// NADSYN1 (11734609_at) / RFU RASL12 (11751679_a_at) / Fold change /veh RASL12 (11751679_a_at) / RFU CDKN2B (11736163_a_at) / Fold change /veh CDKN2B (11736163_a_at) / RFU PRF1 (11729649_at) / Fold change /veh PRF1 (11729649_at) / RFU, ZNF638 /// ZNF638-IT1 / Fold change vs veh, ZNF638 /// ZNF638-IT1 / RFU, PANK3 / Fold change vs veh, PANK3 / RFU, SH3YL1 / Fold change vs veh, SH3YL1 / RFU, ZEB2 / Fold change vs veh, ZEB2 / RFU, NRIP1 / Fold change vs veh, NRIP1 / RFU, PTTG1IP / Fold change vs veh, PTTG1IP / RFU, CAPN2 / Fold change vs veh, CAPN2 / RFU, MED14 / Fold change vs veh, MED14 / RFU, SNORA58 / Fold change vs veh, SNORA58 / RFU, C1orf63 / Fold change vs veh, C1orf63 / RFU, LRRFIP1 / Fold change vs veh, LRRFIP1 / RFU, NDUFAF7 / Fold change vs veh, NDUFAF7 / RFU, SLC12A2 / Fold change vs veh, SLC12A2 / RFU, IBTK / Fold change vs veh, IBTK / RFU, ESF1 / Fold change vs veh, ESF1 / Fold change vs veh, TMEM50B / RFU, TAOK1 / Fold change vs veh, TAOK1 / RFU, ACBD3 / Fold change vs veh, ACBD3 / RFU, TMA16 / Fold change vs veh, TMA16 / RFU, RWDD3 / Fold change vs veh, RWDD3 / RFU, BCAT1 / Fold change vs veh, BCAT1 / RFU, EDEM3 / Fold change vs veh, EDEM3 / RFU, TMEM33 / Fold change vs veh, TMEM33 / RFU, WDR75 / Fold change vs veh, WDR75 / RFU, AHCTF1 / Fold change vs veh, AHCTF1 / RFU, TFRC / Fold change vs veh, TFRC / RFU, ZDHHC17 / Fold change vs veh, ZDHHC17 / RFU, NOM1 / Fold change vs veh, NOM1 / RFU, ARL8B / Fold change vs veh, ARL8B / RFU, ZBTB11 / Fold change vs veh, ZBTB11 / RFU, TAMM41 / Fold change vs veh, TAMM41 / RFU, KIAA1704 /// LOC100996395 / Fold change vs veh, KIAA1704 /// LOC100996395 / RFU, ING1 / Fold change vs veh, ING1 / RFU, TRMT61B / Fold change vs veh, TRMT61B / RFU, FUBP3 / Fold change vs veh, FUBP3 / RFU, TP53 / Fold change vs veh, TP53 / RFU, TNKS2 / Fold change vs veh, TNKS2 / RFU, ZFP14 / Fold change vs veh, ZFP14 / RFU, ACTR2 / Fold change vs veh, ACTR2 / RFU, PPP3R1 / Fold change vs veh, PPP3R1 / RFU, PIK3R1 / Fold change vs veh, PIK3R1 / RFU, HNRNPA1 / Fold change vs veh, HNRNPA1 / RFU, RNF170 / Fold change vs veh, RNF170 / RFU, ZNF28 / Fold change vs veh, ZNF28 / RFU, RNGTT / Fold change vs veh, RNGTT / RFU, OGT / Fold change vs veh, OGT / RFU, BRD1 / Fold change vs veh, BRD1 / RFU, MARS / Fold change vs veh, MARS / RFU, ZNF655 / Fold change vs veh, ZNF655 / RFU, FAHD1 / Fold change vs veh, FAHD1 / RFU, BDP1 / Fold change vs veh, BDP1 / RFU, LRRCC1 / Fold change vs veh, LRRCC1 / RFU, ARID1A / Fold change vs veh, ARID1A / RFU, ZNF146 / Fold change vs veh, ZNF146 / RFU, ZNF330 / Fold change vs veh, ZNF330 / RFU, GPN3 / Fold change vs veh, GPN3 / RFU, C9orf123 / Fold change vs veh, C9orf123 / RFU, N4BP2L2 / Fold change vs veh, N4BP2L2 / RFU, ARFIP1 / Fold change vs veh, ARFIP1 / RFU, FAM179B / Fold change vs veh, FAM179B / RFU, BCL10 / Fold change vs veh, BCL10 / RFU, UHRF1BP1L / Fold change vs veh, UHRF1BP1L / RFU, BET1 / Fold change vs veh, BET1 / RFU, CNOT2 / Fold change vs veh, CNOT2 / RFU, ZNF268 / Fold change vs veh, ZNF268 / Fold change vs veh, ZNF507 / RFU, DGCR2 / Fold change vs veh, DGCR2 / RFU, WDSUB1 / Fold change vs veh, WDSUB1 / Fold change vs veh, HSP90B1 /// MIR3652 / RFU, ADSS / Fold change vs veh, ADSS / RFU, GK / Fold change vs veh, GK / RFU, ZNF148 / Fold change vs veh, ZNF148 / RFU, TAF9 / Fold change vs veh, TAF9 / RFU, SLC1A5 / Fold change vs veh, SLC1A5 / RFU, SLMO2 / Fold change vs veh, SLMO2 / RFU, ABCC4 / Fold change vs veh, ABCC4 / RFU, LOC101060439 /// RAP1B / Fold change vs veh, LOC101060439 /// RAP1B / RFU, RFX7 / Fold change vs veh, RFX7 / RFU, GTPBP10 / Fold change vs veh, GTPBP10 / RFU, CNEP1R1 / Fold change vs veh, CNEP1R1 / RFU, BIVM-ERCC5 /// ERCC5 / Fold change vs veh, BIVM-ERCC5 /// ERCC5 / RFU, ILF3 / Fold change vs veh, ILF3 / RFU 11762660_at / Fold change /veh 11762660_at / RFU VCAN (11757783_s_at) / Fold change /veh VCAN (11757783_s_at) / RFU DDX43 (11728927_at) / Fold change /veh DDX43 (11728927_at) / RFU KRT8 (11758188_x_at) / Fold change /veh KRT8 (11758188_x_at) / RFU NKD1 (11759106_at) / Fold change /veh NKD1 (11759106_at) / RFU SRD5A1 (11742802_a_at) / Fold change /veh SRD5A1 (11742802_a_at) / RFU TPSAB1 /// TPSB2 (11721975_s_at) / Fold change /veh TPSAB1 /// TPSB2 (11721975_s_at) / RFU GSTM3 (11746129_a_at) / Fold change /veh GSTM3 (11746129_a_at) / RFU IL23R (11737362_x_at) / Fold change /veh IL23R (11737362_x_at) / RFU TMEM51 (11727254_a_at) / Fold change /veh TMEM51 (11727254_a_at) / RFU PIWIL2 (11732686_x_at) / Fold change /veh PIWIL2 (11732686_x_at) / RFU ORM1 (11744905_x_at) / Fold change /veh ORM1 (11744905_x_at) / RFU CCDC152 (11743942_at) / Fold change /veh CCDC152 (11743942_at) / RFU ECM1 (11717891_a_at) / Fold change /veh ECM1 (11717891_a_at) / RFU IL23R (11748794_a_at) / Fold change /veh IL23R (11748794_a_at) / RFU TNFAIP8L3 (11732012_x_at) / Fold change /veh TNFAIP8L3 (11732012_x_at) / RFU MBOAT4 (11741988_at) / Fold change /veh MBOAT4 (11741988_at) / RFU 11764193_at / Fold change /veh 11764193_at / RFU TMEM53 (11763286_at) / Fold change /veh TMEM53 (11763286_at) / RFU MAGEB2 (11727129_at) / Fold change /veh MAGEB2 (11727129_at) / RFU TMEM200A (11744735_a_at) / Fold change /veh TMEM200A (11744735_a_at) / RFU CCDC152 (11751479_a_at) / Fold change /veh CCDC152 (11751479_a_at) / RFU FAM211A (11726209_a_at) / Fold change /veh FAM211A (11726209_a_at) / RFU RGS16 (11746705_a_at) / Fold change /veh RGS16 (11746705_a_at) / RFU VCAN (11755009_s_at) / Fold change /veh VCAN (11755009_s_at) / RFU RHOB (11743442_s_at) / Fold change /veh RHOB (11743442_s_at) / RFU RGS16 (11720943_a_at) / Fold change /veh RGS16 (11720943_a_at) / RFU RGS16 (11720944_at) / Fold change /veh RGS16 (11720944_at) / RFU, VPS4B / Fold change vs veh, VPS4B / RFU, CREB1 / Fold change vs veh, CREB1 / RFU, DNAJC13 / Fold change vs veh, DNAJC13 / RFU, GNAQ / Fold change vs veh, GNAQ / RFU, CDK5R1 / Fold change vs veh, CDK5R1 / RFU, ZRANB3 / Fold change vs veh, ZRANB3 / RFU, CUL4A / Fold change vs veh, CUL4A / RFU, CCNY / Fold change vs veh, CCNY / RFU, UFL1 / Fold change vs veh, UFL1 / RFU, COG3 / Fold change vs veh, COG3 / RFU, DIAPH2 / Fold change vs veh, DIAPH2 / RFU, SKA2 / Fold change vs veh, SKA2 / RFU, AFF3 / Fold change vs veh, AFF3 / RFU, LMF1 / Fold change vs veh, LMF1 / RFU, IPO11 / Fold change vs veh, IPO11 / RFU, DFFB / Fold change vs veh, DFFB / RFU, FOXP1 / Fold change vs veh, FOXP1 / RFU, CARD8 / Fold change vs veh, CARD8 / RFU, STRN3 / Fold change vs veh, STRN3 / RFU, ADK / Fold change vs veh, ADK / RFU, RASSF2 / Fold change vs veh, RASSF2 / RFU, WIPF1 / Fold change vs veh, WIPF1 / RFU, LARP1B / Fold change vs veh, LARP1B / RFU, RASA1 / Fold change vs veh, RASA1 / RFU, RB1 / Fold change vs veh, RB1 / RFU, PPFIA1 / Fold change vs veh, PPFIA1 / RFU, MAT2A / Fold change vs veh, MAT2A / RFU, CCT5 / Fold change vs veh, CCT5 / RFU, WDR92 / Fold change vs veh, WDR92 / RFU, CUX1 / Fold change vs veh, CUX1 / RFU, TTC7A / Fold change vs veh, TTC7A / RFU, TMEM135 / Fold change vs veh, TMEM135 / RFU, DEPTOR / Fold change vs veh, DEPTOR / RFU, CPM / Fold change vs veh, CPM / RFU, DNAJB6 / Fold change vs veh, DNAJB6 / RFU, CACNA2D3 / Fold change vs veh, CACNA2D3 / RFU, DTX4 / Fold change vs veh, DTX4 / RFU, TFCP2 / Fold change vs veh, TFCP2 / RFU, GMCL1 /// GMCL1P1 / Fold change vs veh, GMCL1 /// GMCL1P1 / RFU, AEBP2 / Fold change vs veh, AEBP2 / RFU, SNHG1 /// SNORD22 /// SNORD25 /// SNORD26 /// SNORD27 /// SNORD28 /// SNORD29 /// SNORD31 / Fold change vs veh, SNHG1 /// SNORD22 /// SNORD25 /// SNORD26 /// SNORD27 /// SNORD28 /// SNORD29 /// SNORD31 / Fold change (Aza/veh), C12orf56 (ProbeSet 11735607_a_at) / Fold change (ACY-1035/veh), C12orf56 (ProbeSet 11735607_a_at) / Fold change (Aza/veh), FGFR1OP (ProbeSet 11751329_s_at) / Fold change (ACY-1035/veh), FGFR1OP (ProbeSet 11751329_s_at) / Fold change (Aza/veh), VPS36 (ProbeSet 11739960_a_at) / Fold change (ACY-1035/veh), VPS36 (ProbeSet 11739960_a_at) / RFU SYPL1 (11715823_x_at) / Fold change /veh SYPL1 (11715823_x_at) / RFU IGFBP7 (11715501_s_at) / Fold change /veh IGFBP7 (11715501_s_at) / RFU REEP3 (11722064_at) / Fold change /veh REEP3 (11722064_at) / RFU IGLL1 (11728026_x_at) / Fold change /veh IGLL1 (11728026_x_at): dose or concentration left out as unconfirmed
Conditions: ProbeSet 11725787_a_at; LIST B

`Nc1ccc(-c2cccs2)cc1NC(=O)c1ccc2c(c1)cc(C1CC1)n2CCN1CCOCC1` [ACY-1035] was tested, and the “RFU, TMA16” value was 138.28 RFU.
